Here are results for ten molecules from US4818754A, “Certain anti-inflammatory pyrazolo [4,3-b] pyridine 7-amines” (Beecham Group p.l.c. of Beecham House, priority 1986, dated 1989).

Each structure is given as a SMILES string.

Experiment [1] relates to swelling induced by cantharidin. The experiment is described as follows: Mouse cantharidin test (topical anti-inflammatory activity, mouse ear swelling). The note with it: 24 hours, CDl male mice, **p < 0.01, ***p < 0.001; for inhibition in vivo at 500 µg/ear: dose 500 μg/ear; for inhibition in vivo at 200 µg/ear: dose 200 μg/ear. The class given is in vivo. As for the experimental part: Compounds were tested for topical anti-inflammatory activity in a cantharidin mouse ear screen, modified from Swingle, Reiter and Schwartzmiller [Arch. int. Pharmacodyn. 254, 168-176, 1981].
25 μg cantharidin (in 10 μl tetrahydrofuran:methanol, 1:1 v/v) is applied to both ears of CDl male mice, 25 g bodyweight. 8 animals are used per experimental group. Compounds are included in the irritant solution applied to the left ear only. Negative control animals receive no treatment except 10 μl solvent on each ear. After 24 hours, the animals are killed and the ears are removed by cutting along the hairline and then weighed. The swelling induced by cantharidin is assessed as the increase in the weight of the right ears over that of the right ears of solvent-treated control animals, as a proportion of the weight of solvent-treated right ears. The swelling induced in the same animals in the presence of test compound is similarly the increase in the weight of the left ears over that of the left ears of the solvent-treated control animals, expressed as a proportion of the weight of solvent-treated left ears.
thus, % inhibition=([means wt.left experimental ears-mean wt.left 100-control ears]/[mean wt.left control ears])×100 ([mean wt.right experimental ears-mean wt.right control ears]/[mean wt.right control ears])
(§1) This method reduces the contribution of inter-animal variations in responsiveness to the inflammatory stimulus, and also compensates for any consistent bias in cutting off left and right ears. The significance of the inhibition is calculated using a paired `t` test of the two values of proportional weight increases.

The test system of experiment [2] is swelling induced by oxazolone. The experiment is described as follows: Mouse oxazolone test (topical anti-inflammatory activity in mice sensitised to oxazolone, ear swelling). The class given is in vivo. Conditions: dose 200 μg/ear, 1 hour before challenge, 24 hours after, CDl male mice, *p < 0.1, **p < 0.01, ***p < 0.001. As to the method:
Compounds were tested for topical anti-inflammatory activity in a model system using the mouse sensitised to oxazolone, by a method modified from that of Dietrich and Hess [Int. Arch. Allergy, 38, 246 (1970)].
Mice are sensitised with oxazolone (2 mg in 20 μl acetone) on a shaved area of the abdomen. CDl male mice of around 25 g bodyweight (8 animals per group) are used. 5 days later, the animals receive 10 μl tetrahydrofuran:methanol (1:1 v/v) on the right ear and the test compound in 10 μl of the same solvent on the left ear. 1 hour later, the animals are challenged with 100 μg oxazolone in 10 μl acetone on each ear. Negative control animals receive no treatment except 10 μl tetrahydrofuran:methanol at the initial time point. After 24 hours, the animals are killed and the ears are removed by cutting along the hairline and then weighed. The swelling induced by oxazolone is assessed as the increase in the weight of the right ears over that of the right ears of solvent-treated control animals, as a proportion of the weight of solvent-treated right ears. The swelling induced in the same animals in the presence of test compound is similarly the increase in the weight of the left ears over that of the left ears of the solvent-treated control animals, expressed as a proportion of the weight of solvent-treated left ears.
thus, % inhibition=([mean wt.left experimental ears-mean wt.left 100-control ears]/[mean wt.left control ears])×100 ([mean wt.right experimental ears-mean wt.right control ears]/[mean wt.right control ears])
as §1

`O=C(CCCNc1ccnc2cn[nH]c12)NCc1ccccc1` [Example 8, (7-(1H-Pyrazolo[4,3,-b]pyridyl)amino)butanoic acid benzylamide] registered an inhibition in vivo at 500 µg/ear in experiment [1] of 95%.
For `Cc1cc(NCCN2CCOCC2)c2[nH]ncc2n1` [Example 5, 7-[2-(N-Morpholino)ethylamino]-5-methyl-1H-pyrazolo [4,3-b]pyridine dihydrate], the “% Inhibition” value in experiment [2] is 61.6%. The molecule further gave an inhibition in vivo at 200 µg/ear in experiment [1] of 97.6%.
The molecule `CC(C)CCOC(=O)CCCNc1ccnc2cn[nH]c12` [Example 12, Isoamyl (7-(1H-pyrazolo[4,3-b]pyridyl)amino)butanoate] came in with an inhibition in vivo at 200 µg/ear in experiment [1] of 78%.
With `CCOC(=O)CCCNc1ccnc2cn[nH]c12` [Example 2, Ethyl 4-(7-(1H-Pyrazolo[4,3-b]pyridyl)amino)butanoate], the “% Inhibition” value in experiment [2] came out at 48.6%. This molecule also came in with an inhibition in vivo at 500 µg/ear in experiment [1] of 94.6%.
Regarding `CCCCC(=O)OCCNc1cc(C)nc2cn[nH]c12` [Example 9, 7-(2-Pentanoyloxyethylamino)-5-methyl-1H-pyrazolo[4,3-b]pyridine], in experiment [1], the inhibition in vivo at 200 µg/ear came to 69%.
As to `Cc1cc(NCCCN2CCCC2=O)c2[nH]ncc2n1` [Example 3, 5-Methyl-7-(3-(1-(2-oxopyrrolidinyl))propylamino)-1H-pyrazolo[4,3-b]pyridine], the “% Inhibition” value in experiment [2] is 44.1%. This molecule showed an inhibition in vivo at 200 µg/ear in experiment [1] of 75.3%.
For `CC(=O)OCCCNc1cc(C)nc2cn[nH]c12` [Example 6, 7-[3-Acetoxypropylamino]-5-methyl-1H-pyrazolo[4,3-b]-pyridine] the same measures were 53% and 70%.
As to `CCCCC(=O)OCCCNc1cc(C)nc2cn[nH]c12` [Example 4, 7-[3-Pentanoyloxypropylamino]-5-methyl-1H-pyrazolo[4,3-b]pyridine], the inhibition in vivo at 200 µg/ear in experiment [1] was 69.9%.
In experiment [1], `CCC(=O)OCCNc1cc(C)nc2cn[nH]c12` [Example 10, 7-[2-Propionyloxyethylamino]-5-methyl-1H-pyrazolo[4,3-b]pyridine] returned an inhibition in vivo at 200 µg/ear of 55%.
`Cc1cc(NCCOC(=O)c2ccccc2)c2[nH]ncc2n1` [Example 7, 7-[2-Benzoyloxyethylamino]-5-methyl-1H-pyrazolo[4,3-b]pyridine]: the “% Inhibition” value in experiment [2] came out at 30%. Also, the inhibition in vivo at 500 µg/ear in experiment [1] is 99.6%.

The term inhibition in vivo denotes the relative decrease from the control value, in per cent. Read a low inhibition in vivo as a weak effect. By % Inhibition is commonly meant the share of the control response that was lost under treatment.
